Measurements from patent publication US6566081B1, “Methods of identifying a compound which modulates the non-transcriptional non-map-kinase induced effects of steroid hormones” (The Brigham and Women's Hospital, Inc., priority 1999, dated 2003).
“And” between values parts separate entries of the source, which are not always exact repeats. Equal values may be shown once. “Also recorded” adds a separate entry of the source.

Key:
NO release = assay: Nitrite assay (NO accumulation from endothelial cells); format: cell-based, human; conditions: for stimulation of NO release / production (nitrite accumulation): 30 min, E2/αE2 10 nM, insulin 100 nM, acetylcholine; for effect on E2-induced NO release / production: E2 10 nM 30 min, ICI 10 μM, wortmannin 30 nM
Description: NO accumulation from serum-starved endothelial cells was determined by a modified nitrite assay using 2, 3 diaminonaphtalene as described previously.^33 Fluorescence of 1-(H)-naphtotriazole was measured with excitation and emission wavelengths of 365 and 450 nm, respectively. Standard curves were constructed with known amounts of sodium nitrite. Nonspecific fluorescence was determined in the presence of LNMA (3 mM).

PI3-kinase = PI3-kinase assay on p85 immunoprecipitates of endothelial cell lysates; format: cell-based, human; conditions: for stimulation of PI3-kinase activity: E2/αE2 10 nM, insulin 100 nM; for effect on E2-induced PI3-kinase activation: E2 10 nM 20 min, ICI 10 μM, wortmannin 30 nM
Description: PI3kinase activity in endothelial cell lysates was assayed using the borate thin layer chromatography method, as described.^34 Following a 6 h incubation in serum- and estrogen-deficient medium 199, endothelial cells were treated according to the indicated conditions, washed, and harvested in ice-cold lysis buffer (137 mM NaCl, 20 mM Tris-HCl, pH 7.4, 1 mM CaCl2, 1 mM Mg Cl2, 0.1 mM Na3VO4, 1% NP-40). After pelleting the cell debris, the supernatant was incubated for 1 hour at 4° C. with 5 μL of a rabbit antiserum directed against the p85 regulatory subunit of the PI3-kinase (Upstate Biotechnology, Lake Placid, N.Y.), and immunoprecipitated with the addition of 50 μL of a 1:1 slurry of protein A-agarose for 1 hour at 4° C. Following centrifugation, the immunoprecipitates were washed three times with lysis buffer, three times with 0.1 M Tris-HCl, pH 7.4, 5 mM LiCl, 0.1 mM Na3VO4, followed by two washes with 10 mM Tris-HCl, pH 7.4, 150 mM NaCl, 5 mM EDTA, 0.1 mM Na3VO4.
The immunoprecipitates were then mixed with 50 μL Tris-HCl, pH 7.4, 150 mM NaCl, 5 mM EDTA, 20 μg of phosphatidylinositol (Sigma, Saint Louis, Mo.), 10 μL 100 mM MgCl2 and 5 μL of a 0.88 mM ATP, 20 mM MgCl2 solution, containing 30 μCi of [γ-^32P]ATP (3000 Ci/mmol; NEN Life Science Products, Boston, Mass.). […] The phospholipids were extracted with 160 μL of chloroform/methanol (1:1, v/v). 50 μL of the organic phase, containing the labeled PI3-kinase products were separated by borate thin layer chromatography on glass-backed Silica Gel 60 plates (EM Separations, Gibbstown, N.J.) pretreated with a solution containing 25 mM trans-1,2-diaminocyclohexane-N,N,N′N′-tetraacetic acid (CDTA, Sigma, Saint Louis, Mo.), 66% (v/v) ethanol and 0.06 N NaOH, dried for 1 hour and then baked at 100° C. for 15 minutes. The chromatography was developed with a solution containing 37.5% (v/v) methanol, 30% (v/v) chloroform, 22.5% (v/v) pyridine (Sigma, Saint Louis, Mo.), 1.33% (v/v) formic acid, […] boric acid and 8.5 mM butylated hydroxytoluene (Sigma, Saint Louis, Mo.), briefly dried and exposed to autoradiography.

eNOS = eNOS activity assay (conversion of [3H]-arginine to [3H]-citrulline) in treated human endothelial cells; format: cell-based; conditions: for time after stimulation at which PI3-kinase/eNOS activity is stimulated / effect on E2-stimulated eNOS activity, later phase (≥15 min) or 30 min: E2 10 nM; for time after stimulation at which PI3-kinase/eNOS activity is stimulated / stimulation of eNOS activity by the substance alone: insulin 100 nM; for stimulation of eNOS activity by the substance alone: E2/αE2 10 nM; for effect on E2-stimulated eNOS activity, later phase (≥15 min) or 30 min: wortmannin 30 nM, ICI 10 μM, genistein 50 μM, PD98059 5 μM, actinomycin D 2 h pretreatment; for effect on basal eNOS activity, substance alone: no E2
Description: Fetal bovine serum was deprived of estrogen by charcoal-stripping. Once grown to confluence the cells were replated on 1.5% gelatin-coated flasks at 20000 cells/cm^2. […] Cell number was assessed by direct cell counting of adherent cells, after trypsin detachment, in a Neubauer hemocytometer (VWR Scientifics). The percentage of cells excluding Trypan Blue after staining with the compound was taken as a measure of cell viability.
Endothelial cells were grown to confluence on 55 cm^2 culture dishes, treated according to the indicated conditions, and harvested in ice-cold PBS containing 1 mM EDTA. The cell lysates were pelleted in a microfuge (2 minutes, 13000 rpm, 4° C.) and subsequently homogenized in a buffer containing 25 mM Tris-HCl, pH 7.4, 1 mM EDTA, 1 mM EGTA. eNOS activity was determined by measuring the conversion of [^3H]-arginine to [^3H]-citrulline. Rat cerebellum extracts, containing elevated amounts of neuronal NOS, were used as positive controls, while endothelial cell extracts incubated in the presence of the competitive eNOS inhibitor L-NAME (1 mM) served as negative controls.
Human and bovine aortic endothelial cells were harvested enzymatically with Type IA collagenase (1 mg/mL).

In the case of 17β-estradiol [E2], the “stimulation of NO release / production (nitrite accumulation)” value (“stimulation of NO release / production” below) (NO release) is reported as “increases NO release”, the “stimulation of PI3-kinase activity” value (PI3-kinase; 20 min) is reported as “strong activation” and the “increase in PI3-kinase activity compared to baseline” value (PI3-kinase; E2 10 nM, 20 min) is reported as “approximately 5 fold”. For the same molecule, the “PI3-kinase activity in the initial phase of stimulation” value (PI3-kinase; E2 10 nM, ≤10 min) was “little or no PI3-kinase activity”, the “lowest concentration increasing eNOS activity” value (eNOS; 30 min treatment of HSVEC) was 10 pM and the EC50 (eNOS; E2 10 pM-1 μM, 30 min, human endothelial cells, read-out: EC50 value for increase in eNOS activity) was ~0.1 nM and 0.1 nM. The “time after stimulation at which PI3-kinase/eNOS activity is stimulated” value (eNOS) was greater than 15 min, the “stimulation of eNOS activity by the substance alone” value (“stimulation of eNOS activity” below) (eNOS; 30 min) was “increases eNOS activity; also recorded: biphasic increase in eNOS activity; also recorded: marked increase” and the “time of maximum effect on PI3-kinase and eNOS activity” value (eNOS; after stimulation) was 15 to 20 min.

`C[C@]12CC[C@@H]3c4ccc(O)cc4C[C@@H](CCCCCCCCC[S+]([O-])CCCC(F)(F)C(F)(F)F)[C@H]3[C@@H]1CC[C@@H]2O` (stereo partly shown) [ICI 187,780] was tested, and the “effect on E2-induced NO release / production” value (NO release) was “completely blocked”, the “effect on E2-induced NO release / production” value (NO release; listed as ICI 182,780) was “prevent” and the “effect on acetylcholine-induced NO accumulation” value (NO release; acetylcholine 30 min) was “not influenced; also recorded: not affected”. The “effect on E2-induced PI3-kinase activation” value (PI3-kinase) was “full inhibition; also recorded: completely inhibited”, the “effect on E2-induced PI3-kinase activation” value (PI3-kinase; listed as ICI 182,780) was “completely blocked” and the “effect on E2-stimulated eNOS activity, later phase (≥15 min) or 30 min” value (eNOS) was “complete blockade; also recorded: completely blocked”. The “effect on E2-stimulated eNOS activity, later phase (≥15 min) or 30 min” value (eNOS; listed as ICI 182,780) was “completely blocked”, the “effect on basal eNOS activity, substance alone” value (eNOS) was “neither wortmannin nor ICI 187,780 alone affected basal eNOS activity” and the “effect on basal eNOS activity, substance alone” value (eNOS; listed as ICI 182,780) was “did not produce any effect”.

With “insulin: known activator of the PI3-kinase/Akt pathway” the “stimulation of NO release / production” value (NO release) was “able to stimulate”, the “stimulation of NO release / production” value (NO release; listed as Insulin) was “activates nitrite release” and the “stimulation of PI3-kinase activity” value (PI3-kinase; 20 min) was “comparable increase”. The “stimulation of PI3-kinase activity” value (PI3-kinase; 20 min, listed as Insulin) was “marked activation”, the “time after stimulation at which PI3-kinase/eNOS activity is stimulated” value (eNOS) was no more than 2 min and the “stimulation of eNOS activity” value (eNOS; 30 min) was “marked increase; also recorded: able to stimulate”. The “stimulation of eNOS activity” value (eNOS; 30 min, listed as Insulin) was “activates eNOS activity”.
